In patent US9572349B2 (priority 2009, dated 2017):

Tested on: D. citri
Type: in vivo, Diaphorina citri
Settings: four-arm olfactometer; for Percentage of individuals that chose each compound, final choice / Percentage of individuals that chose each compound, first choice: 10 μL pure compound in two arms versus clean air in two arms, 5 min observation; for Behavioural response of psyllids to pure compound (in words): 10 μL pure compound versus clean air

Structure (SMILES)	Percentage of individuals that chose each compound, final choice [%]	Percentage of individuals that chose each compound, first choice [%]	Behavioural response of psyllids to pure compound (in words)
CC1=CC[C@H]2[C@H]3[C@@H]1[C@]2(C)CC[C@H]3C(C)C [α-copaene]	33.0	42.0	higher level of psyllids entering the unscented arm
C=C1CC/C=C(\C)CC[C@@H]2[C@@H]1CC2(C)C [β-caryophyllene]	32.0	42.3	higher level of psyllids entering the unscented arm
